Experimental data as given in patent US8404893B2, “Pentafluorosulfanylbenzoylguanidines, processes for their preparation, their use as medicaments or diagnostic aids, and medicaments comprising them” (Sanofi-Aventis Deutschland GmbH, priority 2002, dated 2013).
Counter-ions that a name gives are not always drawn.

biological target: T1, human NHE-1 (Homo sapiens, UniProt P19634); experiment: FLIPR assay for NHE-1 inhibition by measurement of the recovery in pHi in transfected cell lines; assay type: cell-based; settings: transfected LAP-1 cell line expressing human NHE-1, BCECF fluorescence, read-out: NHE1 inhibition IC50
T1 construct: expressed in transfected cells; host or cells: LAP-1 cells (parental line without endogenous NHE activity), stably transfected, G418 selection
Protocol: The NHE-1 inhibition IC50 [nM] was determined as follows:
FLIPR assay for determining NHE-1 inhibitors by measurement of the recovery in pHi in transfected cell lines which express human NHE-1
The assay is carried out in an FLIPR (fluorometric imaging plate reader) with black-walled 96-well microtiter plates with clear bases. […] [The growth medium for the transfected cells (Iscove+10% fetal calf serum) additionally contains G418 as selection antibiotic in order to ensure the presence of the transfected sequences.]
The actual assay starts with the removal of the growth medium and addition of 100 μl of loading buffer per well (5 μM BCECF-AM [2′,7′-bis(carboxyethyl)-5-(and -6-)carboxyfluorescein, acetoxymethyl ester] in 20 mM NH4Cl, 115 mM choline chloride, 1 mM MgCl2, 1 mM CaCl2, 5 mM KCl, 20 mM HEPES, 5 mM glucose; pH 7.4 [adjusted with KOH]). The cells are then incubated at 37° C. for 20 minutes. This incubation leads to loading of the cells with the fluorescent dye whose fluorescence intensity depends on pHi, and with NH4Cl which makes the cells slightly alkaline.
[The nonfluorescent dye precursor BCECF-AM is, as ester, membrane-permeable. The actual dye BCECF is not membrane-permeable but is liberated inside cells by esterases.]
After this incubation for 20 minutes, the loading buffer which contains NH4Cl and free BCECF-AM is removed by washing three times in a cell washer (Tecan Columbus) with in each case 400 μl of washing buffer (133.8 mM choline chloride, 4.7 mM KCl, 1.25 mM MgCl2, 1.25 mM CaCl2, 0.97 mM K2HPO4, 0.23 mM KH2PO4, 5 mM HEPES, 5 mM glucose; pH 7.4 [adjusted with KOH]). The residual volume remaining in the wells is 90 μl (50-125 μl possible). This washing step removes the free BCECF-AM and results, as a consequence of the removal of the external NH4^+ ions, in intracellular acidification (˜pHi 6.3-6.4).
Since the equilibrium of intracellular NH4^+ with NH3 and H^+ is disturbed by the removal of the extracellular NH4^+ and by the subsequent instantaneous passage of the NH3 through the cell membrane, the washing process results in H^+ remaining inside the cells, which is the cause of the intracellular acidification. This may eventually lead to cell death if it persists long enough.
It is important at this point that the washing buffer is sodium-free (<1 mM) because extracellular sodium ions would lead to an instantaneous recovery of the pHi through the activity of the cloned NHE isoforms.
It is likewise important for all the buffers used (loading buffer, washing buffer, recovery buffer) not to contain any HCO3^− ions, because the presence of bicarbonate would lead to activation of interfering bicarbonate-dependent pHi regulatory systems present in the parental LAP-1 cell line.
The microtiter plates with the acidified cells are then (up to 20 minutes after the acidification) transferred to the FLIPR. In the FLIPR, the intracellular fluorescent dye is excited by light with a wavelength of 488 nm generated by an argon laser, and the measured parameters (laser power, illumination time and aperture of the CCD camera incorporated in the FLIPR) are chosen so that the average fluorescence signal per well is between 30 000 and 35 000 relative fluorescence units.
The actual measurement in the FLIPR starts with a photograph being taken by the CCD camera every two seconds under software control. After ten seconds, the recovery of the intracellular pH is initiated by adding 90 μl of recovery buffer (133.8 mM NaCl, 4.7 mM KCl, 1.25 mM MgCl2, 1.25 mM CaCl2, 0.97 mM K2HPO4, 0.23 mM KH2PO4, 10 mM HEPES, 5 mM glucose; pH 7.4 [adjusted with NaOH]) by means of the 96-well pipettor incorporated in the FLIPR.
Positive control wells (100% NHE activity) are those to which pure recovery buffer is added, while negative controls (0% NHE activity) receive washing buffer. Recovery buffer with twice the concentration of test substance is added to all the other wells. Measurement in the FLIPR terminates after 60 measurements (two minutes). […]

T1 sequence (P19634 whole entry): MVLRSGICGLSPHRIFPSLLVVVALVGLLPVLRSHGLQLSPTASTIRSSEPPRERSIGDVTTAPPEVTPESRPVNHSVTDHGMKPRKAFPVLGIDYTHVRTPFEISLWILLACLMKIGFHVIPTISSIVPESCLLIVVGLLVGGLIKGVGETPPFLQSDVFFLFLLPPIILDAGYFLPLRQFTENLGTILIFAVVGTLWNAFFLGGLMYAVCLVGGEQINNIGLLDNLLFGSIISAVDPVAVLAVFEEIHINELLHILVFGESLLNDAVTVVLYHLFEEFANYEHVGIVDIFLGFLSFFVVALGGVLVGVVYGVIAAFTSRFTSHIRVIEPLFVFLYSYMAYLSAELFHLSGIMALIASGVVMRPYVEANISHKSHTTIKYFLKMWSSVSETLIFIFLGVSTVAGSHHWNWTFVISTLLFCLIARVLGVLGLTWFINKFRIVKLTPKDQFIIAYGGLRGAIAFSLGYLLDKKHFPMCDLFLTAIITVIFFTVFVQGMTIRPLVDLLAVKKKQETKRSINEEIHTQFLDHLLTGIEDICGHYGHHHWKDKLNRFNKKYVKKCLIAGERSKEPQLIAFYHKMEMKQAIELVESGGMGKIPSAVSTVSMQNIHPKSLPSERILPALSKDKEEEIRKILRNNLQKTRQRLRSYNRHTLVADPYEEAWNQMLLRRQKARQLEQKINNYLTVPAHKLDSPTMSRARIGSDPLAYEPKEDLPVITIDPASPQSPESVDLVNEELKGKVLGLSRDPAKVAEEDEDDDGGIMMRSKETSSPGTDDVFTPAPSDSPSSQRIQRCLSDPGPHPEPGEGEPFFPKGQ

SMILES	IC50
N=C(N)NC(=O)c1ccc(S(F)(F)(F)(F)F)cc1Cl [Example 4, N-[2-Chloro-4-pentafluorosulfanylbenzoyl]guanidine]	0.22 µM
N=C(N)NC(=O)c1ccc(S(F)(F)(F)(F)F)cc1Oc1ccc(F)cc1 [Example 5, N-[2-(4-Fluorophenoxy)-4-pentafluorosulfanylbenzoyl]guanidine]	12 µM
Cc1ccc(S(F)(F)(F)(F)F)cc1C(=O)N=C(N)N [Example 6, N-(2-Methyl-5-pentafluorosulfanylbenzoyl)guanidine]	0.0203 µM

Continued, values first:

IC50	SMILES
0.237 µM	NC(N)=NC(=O)c1cccc(S(F)(F)(F)(F)F)c1 [Example 1, 3-Pentafluorosulfanylbenzoylguanidine, Hydrochloride]
0.131 µM	NC(N)=NC(=O)c1ccc(S(F)(F)(F)(F)F)cc1 [Example 2, 4-Pentafluorosulfanylbenzoylguanidine, Hydrochloride]
0.0145 µM	Cc1cc(S(F)(F)(F)(F)F)ccc1C(=O)N=C(N)N [Example 3, 4-Pentafluorosulfanyl-2-methylbenzoylguanidine]
